ChEMBL document CHEMBL1201862, “PubChem BioAssay data set” (2004)
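Tested at 5 concentrations; 48 h exposure; 96-well plates; endpoints linearly interpolated, else capped at highest concentration. GI50 is the concentration that inhibits growth by half.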 Active and inactive are the calls of the source. Rule as the data show it: active = GI50 up to about 1.1 µM and inactive = higher.

Columns and labels:
Experiment in all cases: NCI tumour cell line growth inhibition, 48 h
[1] = test system: 786-0
[2] = test system: A498
[3] = test system: A549
[4] = test system: ACHN
[5] = test system: BT-549
[6] = test system: CAKI-1
[7] = test system: CCRF-CEM
[8] = test system: COLO 205
[9] = test system: DU-145
[10] = test system: EKVX
[11] = test system: HCC 2998
[12] = test system: HCT-116
[13] = test system: HCT-15
[14] = test system: HL-60
[15] = test system: HOP-62
[16] = test system: HOP-92
[17] = test system: HT-29
[18] = test system: Hs-578T
[19] = test system: IGROV-1
[20] = test system: K562
[21] = test system: KM12
[22] = test system: LOX IMVI
[23] = test system: M14
[24] = test system: MCF7
[25] = test system: MDA-MB-231
[26] = test system: MDA-MB-435
[27] = test system: MDA-N
[28] = test system: MOLT-4
[29] = test system: Malme-3M
[30] = test system: NCI-H226
[31] = test system: NCI-H23
[32] = test system: NCI-H460
[33] = test system: NCI-H522
[34] = test system: NCI/ADR-RES
[35] = test system: OVCAR-3
[36] = test system: OVCAR-4
[37] = test system: OVCAR-5
[38] = test system: OVCAR-8
[39] = test system: PC-3
[40] = test system: RPMI-8226
[41] = test system: RXF 393
[42] = test system: SF-268
[43] = test system: SF-295
[44] = test system: SF-539
[45] = test system: SK-MEL-28
[46] = test system: SK-MEL-2
[47] = test system: SK-MEL-5
[48] = test system: SK-OV-3
[49] = test system: SN12C
[50] = test system: SNB-19
[51] = test system: SNB-75
[52] = test system: SW-620
[53] = test system: TK-10
[54] = test system: U-251
[55] = test system: UACC-257
[56] = test system: UACC-62
[57] = test system: UO-31
[58] = test system: SR

COc1ccccc1C(=O)c1c(NCc2ccccc2)c(=O)c1=O
GI50 [1]: 40.2 µM (inactive) | GI50 [2]: > 100 µM (inactive) | GI50 [3]: 0.424 µM (active) | GI50 [4]: > 100 µM (inactive) | GI50 [5]: 66.8 µM (inactive) | GI50 [6]: 35.2 µM (inactive) | GI50 [7]: 26.1 µM (inactive) | GI50 [8]: 28.3 µM (inactive) | GI50 [9]: > 100 µM (inactive) | GI50 [10]: > 100 µM (inactive) | GI50 [11]: > 100 µM (inactive) | GI50 [12]: > 100 µM (inactive) | GI50 [13]: 27.4 µM | GI50 [14]: 21 µM (inactive) | GI50 [15]: > 100 µM (inactive) | GI50 [16]: > 100 µM (inactive) | GI50 [17]: > 100 µM (inactive) | GI50 [18]: > 100 µM (inactive) | GI50 [19]: 9.55 µM (inactive) | GI50 [20]: 27.5 µM (inactive) | GI50 [21]: > 100 µM (inactive) | GI50 [22]: 29.9 µM (inactive) | GI50 [23]: > 100 µM (inactive) | GI50 [24]: 0.0254 µM (active) | GI50 [25]: > 100 µM (inactive) | GI50 [26]: > 100 µM (inactive) | GI50 [27]: > 100 µM (inactive) | GI50 [28]: 23.4 µM (inactive) | GI50 [29]: 23.4 µM (inactive) | GI50 [30]: > 100 µM (inactive) | GI50 [31]: > 100 µM (inactive) | GI50 [32]: > 100 µM (inactive) | GI50 [33]: 11.5 µM (inactive) | GI50 [34]: > 100 µM (inactive) | GI50 [35]: > 100 µM (inactive) | GI50 [36]: > 100 µM (inactive) | GI50 [37]: > 100 µM (inactive) | GI50 [38]: > 100 µM (inactive) | GI50 [39]: > 100 µM (inactive) | GI50 [40]: 32.9 µM (inactive) | GI50 [41]: 0.0708 µM (active) | GI50 [42]: > 100 µM (inactive) | GI50 [43]: > 100 µM (inactive) | GI50 [44]: 0.0841 µM (active) | GI50 [45]: 18.1 µM (inactive) | GI50 [46]: > 100 µM (inactive) | GI50 [47]: > 100 µM (inactive) | GI50 [48]: > 100 µM (inactive) | GI50 [49]: > 100 µM (inactive) | GI50 [50]: > 100 µM (inactive) | GI50 [51]: > 100 µM (inactive) | GI50 [52]: 18.2 µM (inactive) | GI50 [53]: > 100 µM (inactive) | GI50 [54]: 66.4 µM (inactive) | GI50 [55]: > 100 µM (inactive) | GI50 [56]: > 100 µM (inactive) | GI50 [57]: > 100 µM (inactive)

CC1N(O)C(c2ccccc2)C(c2ccccc2)=[N+]1[O-] (stereo not given)
GI50 [1]: > 100 µM (inactive) | GI50 [2]: > 100 µM (inactive) | GI50 [3]: > 100 µM (inactive) | GI50 [4]: > 100 µM (inactive) | GI50 [5]: > 100 µM (inactive) | GI50 [6]: > 100 µM (inactive) | GI50 [7]: > 100 µM (inactive) | GI50 [8]: > 100 µM (inactive) | GI50 [10]: > 100 µM (inactive) | GI50 [11]: > 100 µM (inactive) | GI50 [12]: > 100 µM (inactive) | GI50 [13]: > 100 µM | GI50 [14]: > 100 µM (inactive) | GI50 [15]: > 100 µM (inactive) | GI50 [16]: > 100 µM (inactive) | GI50 [17]: > 100 µM (inactive) | GI50 [18]: > 100 µM (inactive) | GI50 [19]: > 100 µM (inactive) | GI50 [20]: > 100 µM (inactive) | GI50 [21]: > 100 µM (inactive) | GI50 [22]: > 100 µM (inactive) | GI50 [23]: > 100 µM (inactive) | GI50 [24]: > 100 µM (inactive) | GI50 [25]: > 100 µM (inactive) | GI50 [27]: > 100 µM (inactive) | GI50 [28]: > 100 µM (inactive) | GI50 [29]: > 100 µM (inactive) | GI50 [30]: > 100 µM (inactive) | GI50 [31]: > 100 µM (inactive) | GI50 [32]: > 100 µM (inactive) | GI50 [34]: > 100 µM (inactive) | GI50 [35]: > 100 µM (inactive) | GI50 [36]: > 100 µM (inactive) | GI50 [37]: > 100 µM (inactive) | GI50 [38]: > 100 µM (inactive) | GI50 [39]: > 100 µM (inactive) | GI50 [41]: > 100 µM (inactive) | GI50 [43]: > 100 µM (inactive) | GI50 [44]: > 100 µM (inactive) | GI50 [45]: > 100 µM (inactive) | GI50 [46]: > 100 µM (inactive) | GI50 [47]: > 100 µM (inactive) | GI50 [48]: > 100 µM (inactive) | GI50 [49]: > 100 µM (inactive) | GI50 [50]: > 100 µM (inactive) | GI50 [51]: 84.3 µM (inactive) | GI50 [58]: > 100 µM (inactive) | GI50 [52]: > 100 µM (inactive) | GI50 [53]: > 100 µM (inactive) | GI50 [54]: > 100 µM (inactive) | GI50 [55]: > 100 µM (inactive) | GI50 [56]: > 100 µM (inactive) | GI50 [57]: > 100 µM (inactive)
